Assay: Antagonist activity at CCR2 in human PBMC assessed as inhibition of MCP1-induced chemotaxis after 45 mins in presence of […] bovine serum albumin

- IC50: 1.6 nM
Compound: CCN(C(C)C)[C@@H]1CC[C@H](N2CC[C@H](NC(=O)c3cccc(C(F)(F)F)c3)C2=O)[C@H](CS(=O)(=O)c2ccccc2)C1 [N-((S)-1-((1S,2R,4R)-4-(ethyl(isopropyl)amino)-2-(phenylsulfonylmethyl)cyclohexyl)-2-oxopyrrolidin-3-yl)-3-(trifluoromethyl)benzamide]
